Where two headings read alike, the source gives them in different places. Non-standard residues stand in square brackets, D forms with d. Residues, ends and D or L forms follow the SMILES beside them. Aoe = N[C@@H](CCCCCC(=O)[C@@H]1CO1)C(=O)O
Assays:
[1] = test system: Trichomonas vaginalis G3 trophozoites; conditions: for T.vaginalis_Absorbance_Rep1: replicate 1, raw absorbance; for T.vaginalis_Absorbance_Rep2: replicate 2, raw absorbance
[2] = test system: nontumorigenic neonatal foreskin fibroblast (NFF) cell line
[3] = parasite screen at 1 µg/mL, replicate 1
[4] = parasite screen at 1 µg/mL, replicate 2
[5] = NFF_NS1 screen at 5 µg/mL, NFF cells
[6] = HTS single concentration, parasite screen 1 µg/mL, replicate 1
[7] = HTS single concentration, parasite screen 1 µg/mL, replicate 2
[8] = NFF_NS1 screen 5 µg/mL, single concentration
[9] = replicate 1, parasite screen at 1 µg/mL
[10] = replicate 2, parasite screen at 1 µg/mL
[11] = HTS, parasite screen at 1 µg/mL, replicate 1
[12] = HTS, parasite screen at 1 µg/mL, replicate 2
[13] = NFF fibroblast screen at 5 µg/mL, A = active, I = inactive
[14] = HTS, parasite screen at 1 µg/mL

COC(=O)c1cc(O)cc(OC)c1C(=O)c1c(O)cc(C)cc1O [BIA-S1089]
T.vaginalis_%inb_Rep1 [1, 3]: 9.49% | T.vaginalis_%inb_Rep2 [1, 4]: 14.81% | NFF_Activity [2, 5]: A (active (A) compounds having >25% inhibitory activity)

COC1=CC(C)=CC(C)C(O)C(C)CC(C)=CC=CC(OC)C(C(C)C(O)C(C)C2(O)CC(OC(=O)C=CC(=O)NC3=C(O)CCC3=O)C(C)C(C(C)C)O2)OC1=O (stereo not drawn) [BIA-B1110]
T.vaginalis_%inb_Rep1 [1, 6]: 72.75% | T.vaginalis_%inb_Rep2 [1, 7]: 93.35% | NFF_Activity [2, 8]: I (otherwise these were reported as inactive (I))

CCC(C(=O)C(C)C(O)C(C)CCc1ccc(C)c(O)c1C(=O)O)C1OC(CC)(C2CCC(O)(CC)C(C)O2)CC1C (stereo not drawn) [BIA-L1533]
T.vaginalis_%inb_Rep1 [1, 9]: 11.71% | T.vaginalis_%inb_Rep2 [1, 10]: 10.90% | NFF_Activity ([2]; NFF cells, screen at 5 µg/mL): I (otherwise these were reported as inactive (I))

CN1CCC2(c3cccc4c3NC3N(C)CCC43C34CCN(C)C3Nc3ccccc34)c3ccccc3NC12 (stereo not drawn) [BIA-H1948]
T.vaginalis_%inb_Rep1 [1, 9]: 8.81% | T.vaginalis_%inb_Rep2 [1, 10]: 5.36% | NFF_Activity ([2]; NFF cells, screen at 5 µg/mL): A (active (A) compounds having >25% inhibitory activity)

C[C@@H]1NC(=O)[C@H](CCCCCC(=O)[C@@H]2CO2)NC(=O)[C@H]2CCCN2C(=O)[C@H](Cc2ccccc2)NC1=O [BIA-A1402] (cyclo(AF[dP][Aoe]))
T.vaginalis_%inb_Rep1 [1, 6]: 64.03% | T.vaginalis_%inb_Rep2 [1, 7]: 94.29% | NFF_Activity [2, 8]: I (otherwise these were reported as inactive (I))

C[C@@H]1Cc2ccc(C(=O)N[C@@H](Cc3ccccc3)C(=O)O)c(O)c2C(=O)O1 [Ochratoxin B]
T.vaginalis_%inb_Rep1 ([1]; HTS replicate 1, parasite screen 1 µg/mL): 13.18% | T.vaginalis_%inb_Rep2 ([1]; HTS replicate 2, parasite screen 1 µg/mL): 9.36% | NFF_Activity ([2]; NFF fibroblasts, single concentration 5 µg/mL): I (otherwise these were reported as inactive (I))

CC1(C)OC2CC(=O)OCC23C1CC(=O)C1(C)C3CCC2(C)C(c3ccoc3)OC(=O)C3OC321 (stereo not drawn) [BIA-L1755]
T.vaginalis_%inb_Rep1 [1, 9]: 11.46% | T.vaginalis_%inb_Rep2 [1, 10]: 13.09% | NFF_Activity ([2]; NFF cells, screen at 5 µg/mL): I (otherwise these were reported as inactive (I))

CO[C@H]1C[C@@H]2CC[C@@H](C)[C@@](O)(O2)C(=O)C(=O)N2CCCC[C@H]2C(=O)O[C@H]([C@H](C)C[C@@H]2CC[C@@H](OC(=O)C(C)(CO)CO)[C@H](OC)C2)CC(=O)[C@H](C)/C=C(\C)[C@@H](O)[C@@H](OC)C(=O)[C@H](C)C[C@H](C)/C=C/C=C/C=C/1C [BIA-T1386]
T.vaginalis_%inb_Rep1 [1, 3]: 7.60% | T.vaginalis_%inb_Rep2 [1, 4]: 9.14% | NFF_Activity [2, 5]: I (otherwise these were reported as inactive (I))

CN=C1NC(=O)[C@H]([C@H](C)c2c[nH]c3ccccc23)O1 [BIA-I1040]
T.vaginalis_%inb_Rep1 [1, 9]: 25.76% | T.vaginalis_%inb_Rep2 [1, 10]: 5.58% | NFF_Activity ([2]; NFF cells, screen at 5 µg/mL): I (otherwise these were reported as inactive (I))

Cc1cc2nc3c(=O)[nH]c(=O)nc-3n(C[C@H](O)[C@H](O)[C@H](O)CO)c2cc1N(C)C [BIA-R1535]
T.vaginalis_%inb_Rep1 [1, 3]: 11.33% | T.vaginalis_%inb_Rep2 [1, 4]: 14.32% | NFF_Activity [2, 5]: I (otherwise these were reported as inactive (I))

C[C@@H]1CCC[C@H](O)CCC/C=C/c2cc(O)cc(O)c2C(=O)O1 [Zearalenol, beta-]
T.vaginalis_%inb_Rep1 [1, 11]: 9.54% | T.vaginalis_%inb_Rep2 [1, 12]: 15.05% | NFF_Activity [2, 13]: I (otherwise these were reported as inactive (I))

C/C=C/[C@@H]1C=C[C@@H]2C[C@H](C)CC[C@H]2[C@]1(C)/C(O)=C1/C(=O)[C@H](CO)N(C)C1=O [Equisetin]
T.vaginalis_%inb_Rep1 [1, 11]: 12.17% | T.vaginalis_Absorbance_Rep1 [1, 14]: 0.942 | T.vaginalis_%inb_Rep2 [1, 12]: 15.65% | T.vaginalis_Absorbance_Rep2 [1, 14]: 0.879 | NFF_Activity ([2]; NFF_NS1 screen at 5 µg/mL): I (otherwise these were reported as inactive (I))

CC1CCCC(O)CCCCCc2cc(O)cc(O)c2C(=O)O1 (stereo not drawn) [Zearalanol, beta-]
T.vaginalis_%inb_Rep1 [1, 11]: 9.65% | T.vaginalis_%inb_Rep2 [1, 12]: 13.83% | NFF_Activity [2, 13]: I (otherwise these were reported as inactive (I))

CO[C@H]1C[C@@H]2CC[C@@H](C)[C@@](O)(O2)C(=O)C(=O)N2CCCC[C@H]2C(=O)O[C@H]([C@H](C)C[C@@H]2CC[C@@H](OP(C)(C)=O)[C@H](OC)C2)CC(=O)[C@H](C)/C=C(\C)[C@@H](O)[C@@H](OC)C(=O)[C@H](C)C[C@H](C)/C=C/C=C/C=C/1C [BIA-R1450]
T.vaginalis_%inb_Rep1 [1, 3]: 8.81% | T.vaginalis_%inb_Rep2 [1, 4]: 19.01% | NFF_Activity [2, 5]: I (otherwise these were reported as inactive (I))

CCC(C=CC1OC(=O)C=CC1C)=CC(C)CC=CC(C)=CC(C)C(=O)C(C)C(O)C(C)CC(C)=CC(=O)O (stereo not drawn) [BIA-L1046]
T.vaginalis_%inb_Rep1 [1, 9]: 99.95% | T.vaginalis_%inb_Rep2 [1, 10]: 96.86% | NFF_Activity ([2]; NFF cells, screen at 5 µg/mL): A (active (A) compounds having >25% inhibitory activity)

CCC(=O)Nc1c2sscc-2n(C)c1=O [BIA-A1120]
T.vaginalis_%inb_Rep1 [1, 6]: 100.00% | T.vaginalis_%inb_Rep2 [1, 7]: 82.07% | NFF_Activity [2, 8]: A (active (A) compounds having >25% inhibitory activity)

CC[C@H](C)[C@H]1O[C@]2(C=C[C@@H]1C)C[C@@H]1C[C@@H](C/C=C(\C)[C@@H](O[C@H]3C[C@H](OC)[C@@H](O[C@H]4C[C@H](OC)[C@H](NC(C)=O)[C@H](C)O4)[C@H](C)O3)[C@@H](C)/C=C/C=C3\CO[C@@H]4[C@H](O)C(C)=C[C@@H](C(=O)O1)[C@]34O)O2 [Eprinomectin B1a]
T.vaginalis_%inb_Rep1 [1, 11]: 13.46% | T.vaginalis_Absorbance_Rep1 [1, 14]: 0.959 | T.vaginalis_%inb_Rep2 [1, 12]: 14.17% | T.vaginalis_Absorbance_Rep2 [1, 14]: 0.816 | NFF_Activity ([2]; NFF_NS1 screen at 5 µg/mL): I (otherwise these were reported as inactive (I))

CCCCC(C)C=C(C)C=C(C)C(=O)NC1=CC(O)(C=CC=CC=CC(=O)NC2=C(O)CCC2=O)C2OC2C1=O (stereo not drawn) [BIA-M1905]
T.vaginalis_%inb_Rep1 [1, 9]: 10.60% | T.vaginalis_%inb_Rep2 [1, 10]: 12.76% | NFF_Activity ([2]; NFF cells, screen at 5 µg/mL): I (otherwise these were reported as inactive (I))

Eprinomectin
T.vaginalis_%inb_Rep1 [1, 11]: 12.49% | T.vaginalis_Absorbance_Rep1 [1, 14]: 0.941 | T.vaginalis_%inb_Rep2 [1, 12]: 15.33% | T.vaginalis_Absorbance_Rep2 [1, 14]: 0.832 | NFF_Activity ([2]; NFF_NS1 screen at 5 µg/mL): I (otherwise these were reported as inactive (I))

CCCCCCCCCCCC[C@@H](C(=O)O)[C@H](C)C(=O)O [BIA-R1904]
T.vaginalis_%inb_Rep1 [1, 3]: 13.79% | T.vaginalis_%inb_Rep2 [1, 4]: 5.71% | NFF_Activity [2, 5]: I (otherwise these were reported as inactive (I))

CNC[C@@H]1CC[C@@H](N)[C@@H](O[C@H]2[C@H](O)[C@@H](O[C@H]3OC[C@](C)(O)[C@H](NC)[C@H]3O)[C@H](N)C[C@@H]2N)O1 [Gentamicin C2b]
T.vaginalis_%inb_Rep1 [1, 11]: 11.00% | T.vaginalis_Absorbance_Rep1 [1, 14]: 0.919 | T.vaginalis_%inb_Rep2 [1, 12]: 5.20% | T.vaginalis_Absorbance_Rep2 [1, 14]: 0.716 | NFF_Activity ([2]; NFF_NS1 screen at 5 µg/mL): I (otherwise these were reported as inactive (I))

CC(=O)OC[C@]12C[C@H](OC(=O)CC(C)C)C(C)=C[C@H]1O[C@@H]1[C@H](O)[C@@H](OC(C)=O)[C@@]2(C)[C@]12CO2 [BIA-T1933]
T.vaginalis_%inb_Rep1 [1, 3]: 5.61% | T.vaginalis_%inb_Rep2 [1, 4]: 2.80% | NFF_Activity [2, 5]: I (otherwise these were reported as inactive (I))

C=C1c2cccc(O)c2C(O)=C2C(=O)C3(O)C(O)=C(C(N)=O)C(=O)C(N(C)C)C3C(O)C12 (stereo not drawn) [BIA-M1467]
T.vaginalis_%inb_Rep1 [1, 9]: 12.78% | T.vaginalis_%inb_Rep2 [1, 10]: 4.43% | NFF_Activity ([2]; NFF cells, screen at 5 µg/mL): I (otherwise these were reported as inactive (I))

CC(=O)NCCc1ccc(O)cc1 [BIA-A1731]
T.vaginalis_%inb_Rep1 [1, 6]: 13.35% | T.vaginalis_%inb_Rep2 [1, 7]: 10.05% | NFF_Activity [2, 8]: I (otherwise these were reported as inactive (I))

CN1C(=O)c2ccccc2-n2c(nc3ccccc3c2=O)C1Cc1ccccc1 (stereo not drawn) [BIA-B1647]
T.vaginalis_%inb_Rep1 [1, 6]: 16.42% | T.vaginalis_%inb_Rep2 [1, 7]: 13.38% | NFF_Activity [2, 8]: I (otherwise these were reported as inactive (I))

CCCCCCCCCCCCCCCC(=O)C1=C(O)C(CO)OC1=O (stereo not drawn) [BIA-R1082]
T.vaginalis_%inb_Rep1 [1, 3]: 10.55% | T.vaginalis_%inb_Rep2 [1, 4]: 12.25% | NFF_Activity [2, 5]: I (otherwise these were reported as inactive (I))

CCC1OC(=O)C(C)C(OC2CC(C)(OC)C(O)C(C)O2)C(C)C(OC2OC(C)CC(N(C)C)C2O)C2(C)CC(C)C3(O2)OC1(C)C(O)C3C (stereo not drawn) [BIA-A1348]
T.vaginalis_%inb_Rep1 [1, 6]: 15.19% | T.vaginalis_%inb_Rep2 [1, 7]: 13.67% | NFF_Activity [2, 8]: I (otherwise these were reported as inactive (I))

CC(=O)OCC1=C[C@@H]2OC(=O)C3=CO[C@@H](O[C@@H]4O[C@H](CO)[C@@H](O)[C@H](O)[C@H]4O)[C@H]1[C@@H]32 [BIA-A1774]
T.vaginalis_%inb_Rep1 [1, 6]: 16.59% | T.vaginalis_%inb_Rep2 [1, 7]: 15.84% | NFF_Activity [2, 8]: I (otherwise these were reported as inactive (I))

C=CC(C)(C)C12CC3C(=O)N4C(CC5(C(C)(C)C=C)c6ccccc6NC45)C(=O)N3C1Nc1ccccc12 (stereo not drawn) [BIA-A1631]
T.vaginalis_%inb_Rep1 [1, 6]: 14.16% | T.vaginalis_%inb_Rep2 [1, 7]: 13.96% | NFF_Activity [2, 8]: I (otherwise these were reported as inactive (I))

CC[C@H](C)[C@H]1O[C@]2(C=C[C@@H]1C)C[C@@H]1C[C@@H](C/C=C(\C)[C@@H](O[C@H]3C[C@H](OC)[C@@H](O[C@H]4C[C@H](OC)[C@H](NC)[C@H](C)O4)[C@H](C)O3)[C@@H](C)/C=C/C=C3\CO[C@@H]4[C@H](O)C(C)=C[C@@H](C(=O)O1)[C@]34O)O2 [Emamectin B1a]
T.vaginalis_%inb_Rep1 [1, 11]: 15.19% | T.vaginalis_Absorbance_Rep1 [1, 14]: 0.991 | T.vaginalis_%inb_Rep2 [1, 12]: 5.71% | T.vaginalis_Absorbance_Rep2 [1, 14]: 0.699 | NFF_Activity ([2]; NFF_NS1 screen at 5 µg/mL): A (active (A) compounds having >25% inhibitory activity)

C[C@@H]1OC(=O)[C@H]2C[C@H]3CCCC[C@@H]3[C@@H](/C=C/[C@H]3CCC[C@H](C)N3C)[C@@H]12 [BIA-H1744]
T.vaginalis_%inb_Rep1 [1, 9]: 12.98% | T.vaginalis_%inb_Rep2 [1, 10]: 14.75% | NFF_Activity ([2]; NFF cells, screen at 5 µg/mL): I (otherwise these were reported as inactive (I))

C[C@H]1CC[C@H]2[C@@H](C=C[C@@H]3[C@H]4[C@@H](C)O[C@]5(O)[C@@H](CO)N(C)C(=O)[C@]45C(=O)[C@@]32C)C1 [Fusarisetin A]
T.vaginalis_%inb_Rep1 [1, 11]: 14.05% | T.vaginalis_Absorbance_Rep1 [1, 14]: 0.979 | T.vaginalis_%inb_Rep2 [1, 12]: 15.01% | T.vaginalis_Absorbance_Rep2 [1, 14]: 0.869 | NFF_Activity ([2]; NFF_NS1 screen at 5 µg/mL): I (otherwise these were reported as inactive (I))
